The values that follow come from US9273009B2, “Tetrahydronaphthalene derivatives” (Concert Pharmaceuticals Inc., priority 2010, dated 2016).

Where a name gives a salt, the structure may show the parent alone. Read-outs that look alike come from different tables or passages of the source.

Series [1] is described as follows: Metabolic stability in human liver microsomes (in vitro t1/2). Particulars: for half-life: human, human liver microsomes. In kind it is in vitro ADME. The procedure:
Human liver microsomes (20 mg/mL) were obtained from Xenotech, LLC (Lenexa, Kans.). β-nicotinamide adenine dinucleotide phosphate, reduced form (NADPH), magnesium chloride (MgCl2), and dimethyl sulfoxide (DMSO) were purchased from Sigma-Aldrich.
7.5 mM stock solutions of test compounds were prepared in DMSO. The 7.5 mM stock solutions were diluted to 12.5-50 μM in acetonitrile (ACN). The 20 mg/mL human liver microsomes were diluted to 0.625 mg/mL in 0.1 M potassium phosphate buffer, pH 7.4, containing 3 mM MgCl2. The diluted microsomes were added to wells of a 96-well deep-well polypropylene plate in triplicate. A 10 μL aliquot of the 12.5-50 μM test compound was added to the microsomes and the mixture was pre-warmed for 10 minutes. Reactions were initiated by addition of pre-warmed NADPH solution. The final reaction volume was 0.5 mL and contained 0.5 mg/mL human liver microsomes, 0.25-1.0 μM test compound, and 2 mM NADPH in 0.1 M potassium phosphate buffer, pH 7.4, and 3 mM MgCl2. The reaction mixtures were incubated at 37° C., and 50 μL aliquots were removed at 0, 5, 10, 20, and 30 minutes and added to shallow-well 96-well plates which contained 50 μL of ice-cold ACN with internal standard to stop the reactions. The plates were stored at 4° C. for 20 minutes after which 100 μL of water was added to the wells of the plate before centrifugation to pellet precipitated proteins. Supernatants were transferred to another 96-well plate and analyzed for amounts of parent remaining by LC-MS/MS using an Applied Bio-systems API 4000 mass spectrometer. The same procedure was followed for the non-deuterated counterpart of the compound of Formula B, Formula A, Formula I, Formula B-I, Formula C, or Formula E and the positive control, 7-ethoxycoumarin (1.0 μM). Testing was done in triplicate.
The in vitro t1/2s for test compounds were calculated from the slopes of the linear regression of % parent remaining (ln) vs incubation time relationship. in vitro t1/2=0.693/k k=−[slope of linear regression of % parent remaining(ln) vs incubation time]
For orientation: Liver microsomes are a subcellular fraction often used to study metabolism.

The conditions of series [2]: relative to mibefradil; cited from earlier work.
The conditions of series [3]: intravenous, healthy male volunteers, cited from earlier work.
Where [4] appears, read: pH 7.4, Table 8a, 0.5 mg/mL HLM, 2 mM NADPH, 37° C., read-out: t1/2 Experiment 1.
[5] abbreviates: pH 7.4, Table 8a, 0.5 mg/mL HLM, 2 mM NADPH, 37° C., read-out: t1/2 Experiment 2.
Where [6] appears, read: pH 7.4, Table 8a, average of Experiments 1 and 2, read-out: t1/2 Ave.
Where [7] appears, read: pH 7.4, Table 8b, 0.5 mg/mL HLM, 2 mM NADPH, 37° C., read-out: t1/2 Experiment 1.
Setting [8] is: pH 7.4, Table 8b, 0.5 mg/mL HLM, 2 mM NADPH, 37° C., read-out: t1/2 Experiment 2.
Where [9] appears, read: pH 7.4, Table 8b, average of Experiments 1 and 2, read-out: t1/2 Ave.

On to `[2H]C1([2H])c2cc(F)ccc2[C@H](C(C)C)[C@](CCN(C)CCCc2nc3ccccc3[nH]2)(OC(=O)COC)C1([2H])[2H]` [Compound 500, (1S,2S)-2-(2-((3-(1H-Benzo[d]imidazol-2-yl)propyl)(methyl)amino)ethyl)-3,3,4,4-tetradeutero-6-fluoro-1-isopropyl-1,2,3,4-tetrahydronaphthalen-2-yl 2-methoxyacetate], for which, in series [1] (HLM, from Table 8a), the “half life (t1/2) shorter than that of mibefradil” value is “approximately 44%”. For the same compound, the half-life in series [1] (setting [4]) was 4.61 min; in series [1] (setting [5]) it was 4.98 min; in series [1] (setting [6]) it was 4.79 min.
As to `[2H]C([2H])([2H])N(CC[C@]1(OC(=O)C2CC2)[C@@H](C(C)C)c2ccc(F)cc2C([2H])([2H])C1([2H])[2H])C([2H])([2H])C([2H])([2H])C([2H])([2H])c1nc2ccccc2[nH]1` [Compound 707a, (1S,2S)-2-(2-((3-(1H-Benzo[d]imidazol-2-yl)-1,1,2,2,3,3-hexadeuteropropyl)(trideuteromethyl)-amino)ethyl)-3,3,4,4-tetradeutero-6-fluoro-1-isopropyl-1,2,3,4-tetrahydronaphthalen-2-yl cyclopropanecarboxylate], the half-life in series [1] (setting [7]) stood at 7.27 min; in series [1] (setting [8]), 7.03 min; in series [1] (setting [9]) it was 7.15 min.
Consider `[2H]C([2H])([2H])N(CC[C@]1(OC(=O)COC)[C@@H](C(C)C)c2ccc(F)cc2C([2H])([2H])C1([2H])[2H])C([2H])([2H])C([2H])([2H])C([2H])([2H])c1nc2ccccc2[nH]1` [Compound 703a, (1S,2S)-2-(2-((3-(1H-Benzo[d]imidazol-2-yl)-1,1,2,2,3,3-hexadeuteropropyl)(trideuteromethyl)-amino)ethyl)-3,3,4,4-tetradeutero-6-fluoro-1-isopropyl-1,2,3,4-tetrahydronaphthalen-2-yl 2-methoxyacetate], for which the half-life was 7.17 min in series [1] (setting [4]), 7.72 min in series [1] (setting [5]) and 7.45 min in series [1] (setting [6]).
As to `[2H]C1([2H])c2cc(F)ccc2[C@H](C(C)C)[C@](CCN(C)CCCc2nc3ccccc3[nH]2)(OC(=O)C2CC2)C1([2H])[2H]` [Compound 704a, (1S,2S)-2-(2-((3-(1H-Benzo[d]imidazol-2-yl)propyl)(methyl)amino)ethyl)-3,3,4,4-tetradeutero-6-fluoro-1-isopropyl-1,2,3,4-tetrahydronaphthalen-2-yl cyclopropanecarboxylate], the figures for the half-life in series [1] (setting [7]), in series [1] (setting [8]) and in series [1] (setting [9]) were 6.16 min, 6.6 min and 6.38 min, respectively.
For `CC(C)[C@H]1c2ccc(F)cc2CC[C@@]1(CCN(C)CCCc1nc2ccccc2[nH]1)OC(=O)C1CC1` [NNC 55-0396, reference compound] the same measures were 6.58 min, 6.55 min and 6.56 min.
For the compound `CC(C)C1c2ccc(F)cc2CCC1(O)CCN(C)CCCc1nc2ccccc2[nH]1` (stereo not shown) [Ro 40-5966], the “pharmacologic effect of the metabolite as share of that of the parent” value in series [2] is recorded as “approximately 10%”.
In the case of `COCC(=O)O[C@]1(CCN(C)CCCc2nc3ccccc3[nH]2)CCc2cc(F)ccc2[C@@H]1C(C)C` [Mibefradil, (1S,2S)-2-(2-((3-(2-benzimidazolylpropyl)methylamino)ethyl)-6-fluoro-1,2,3,4-tetrahydro-1-isopropyl-2-naphthyl methoxyacetatedihydrochloride, reference compound], in series [3] (in all cases), the bilirubin result was “dose-dependent increase”. Also, the plasma haptoglobin result in series [3] (in two cases) was “severe decrease”. For the same compound, the half-life came out at 8.49 min in series [1] (setting [4]), 8.55 min in series [1] (setting [5]) and 8.52 min in series [1] (setting [6]).
